According to patent US5770573A, “CS-1 peptidomimetics, compositions and methods of using the same” (Cytel Corporation, priority 1995, dated 1998):
Square brackets hold non-standard residues; d marks the D form. Peptide text beside a SMILES is read from it. * marks the point of attachment. PhAc = O=C(Cc1ccccc1)*

What was measured:
[1] = test system: rabbit cardiac allograft coronary arteries; test: Rabbit cardiac allograft model; format: in vivo; on Expression on Coronary Arteries: ICAM-1: key: -: negative; ±: minimal; +: little; ++: moderately abundant; +++: very abundant; on Expression on Coronary Arteries: Macrophages: key: -: negative; ±: minimal; +: little; ++: moderately abundant; +++: very abundant; on Expression on Coronary Arteries: T cells: key: -: negative; ±: minimal; +: little; ++: moderately abundant; +++: very abundant; on Expression on Coronary Arteries: Total Fibronectin: key: -: negative; ±: minimal; +: little; ++: moderately abundant; +++: very abundant
Source text: New Zealand white rabbit SPF hearts were allografted into the necks of similar rabbits to assay a graft-vs-host immunorejection model and the affect of a contemplated compound on that immunoinflammatory response.
Experimental animal model New Zealand white female rabbits (Charles River Lab., Saint Laurent, Quebec), between 3.5 and 4 kg underwent heterotopic cardiac transplant following an experimental protocol previously described [Alonso et al., Am. J. Pathol., 87:415-442 (1977); Clausell et al., Circulation, 89:2768-2779 (1994)]. The animals were unselected to favor an HLA-mismatch, the host rabbits were Pasteurella-free and the donors, outbred animals. Both host and donor rabbits were fed Purina 5321-0.5 percent cholesterol diet (Research Diets Inc., New Brunswick, N.J.), a strategy that has proven useful in accelerating the process of allograft arteriopathy [Alonso et al., Am. J. Pathol., 87:415-442 (1977)]. The diet was commenced four days prior to the transplant and continued in the recipient of the transplant until the completion of the experimental period.
The technique of heterotopic cardiac transplantation has been previously described [Clausell et al., Circulation, 89:2768-2779 (1994)]. Briefly, a vertical incision was performed in the anterior aspect of the neck of the recipient rabbit and the left common carotid artery and the ipsilateral external jugular vein were isolated. The cardiac allograft was placed in the neck by anastomosing the aorta end-to-side to the recipient's carotid artery and the pulmonary end-to-side to the recipient's external jugular vein, following a total period of ischemia for the donor hearts of approximately 30 minutes. Postoperative care was in compliance with the Principles of Laboratory Animal Care formulated by the Canadian National Society for Medical Research.
Beginning the day of the transplant, the animals were randomized and treated with either scrambled compound (control group) at 1 mg/kg s.c. or the inhibitor compound at 1 mg/kg s.c. The doses of the compounds were empirically extrapolated to the in vivo model based on preliminary in vitro studies, of Table 1. No other immunosuppression therapy was administered. The grafts were monitored daily by palpation and maintained for 7 to 8 days, a previously described endpoint that was associated with myocardial rejection (impaired cardiac contractility) and development of the allograft arteriopathy in this model [Clausell et al., Circulation, 89:2768-2779 (1994)]. A total of fourteen animals were studied in the control (n=7) and treated (n=7) groups.
Preparation of the hearts The animals were sacrificed using a lethal dose of euthanol (480 mg i.v.) (MTC Pharmaceutical, Cambridge, Oreg.), host and donor hearts were removed, and the coronary arteries were perfused with saline through the aorta, followed by light fixation by perfusion with 2 percent paraformaldehyde (Sigma, St, Louis, Mo.). […] Different sections of the hearts were either saved in 10 percent formalin (BDH Inc., Toronto, ON) for light microscopy studies or immediately frozen in O.T.C. Compound Tissue Tek (Miles Inc., Elkart, In.) for specific immunohistochemistry studies.
Three different paraffin-embedded tissue sections from host and donor hearts from both control and treated rabbits were stained by the Movat pentachrome method for light microscopy. Morphometric analysis was performed using a Zeiss microscope attached to a computer-generated video analysis system (Perceptics Inc., NuVision software), as described in Clausell et al., Circulation, 89:2768-2779 (1994). The number of vessels with intimal lesions were counted in all three heart sections from each animal studied and are expressed as a percentage of the total vessel number.
In the host hearts, 999 vessels in the control group and 1054 vessels in the treated group were analyzed. In the donor hearts, 827 vessels in the control group and 617 vessels in the treated group were analyzed. […]

[2] = Loss of potency in PBS containing 10 percent mouse or human serum; conditions: PBS at 7.2-7.4 with 10 percent mouse or human serum; 24 hours
[3] = test system: immune T cells; conditions: about 50 μg/ml admixed with immune T cells; cited from earlier work
[4] = test system: Jurkat cells; test: Binding of Jurkat cells to frozen human RA synovial sections; format: cell-based; conditions: 500 μg/ml
Method: Binding studies were carried out using the Jurkat T cell line and frozen RA synovial sections. […] Stimulated MOLT-4 cells behaved similarly.
The absolute value of that IC50 value is about 0.5 μmolar.

[5] = test system: EAE in SJL/J mice; test: Experimental autoimmune encephalomyelitis in mice; format: in vivo; conditions: 1 mg/mouse i.p. at days 8 and 9; versus scrambled control compound
Method: EAE was induced in female SJL/J mice (8 to 14 weeks old) by immunization on day zero with 50 μg of a compound corresponding to positions 139-151 of PLP emulsified in a 1:1 mixture of PBS and complete Freund's adjuvant (CFA). Each mouse was injected with 0.2 ml of the adjuvant emulsion subcutaneously (s.c.) at two sites in the hind flank. All mice received 10^7 killed Bordetella pertussis units in 100 μl were injected intravenously 24 to 72 hours later.
Mice were observed daily, beginning at day 8 for clinical signs of EAE, and disease was scored on a scale of 0-5 as: 0=no disease; 1=floppy tail; 2=moderate hind limb weakness; 3=paraparesis; 4 =paraplegis with moderate forelimb weakness; 5 =qualdriplegis or premoribund state.
The inhibitor compound, Compound ID No. 896.52, N-phenylacetyl-Leu-Asp-Phe-D-Pro-NH2 was administered intraperitoneally at 1 mg/mouse in 0.2 ml of incomplete Freund's adjuvant at days 8 and 9. A compound having a scrambled sequence [N-phenylacetyl-Asp-Leu-Phe-D-Pro-NH2 ] was similarly administered to serve as a control.
Summed or averaged scores for clinical signs were plotted vs. time. The area under the resulting curves was calculated between day 8 and day 35 to calculate percentage inhibition of EAE by an inhibitor compound. The percent inhibition was calculated as follows:
%Inhibition=100-(Area of inhibitor compound+control area)×100

[6] = test system: asthmatic sheep; test: Treatment of asthmatic sheep (Ascaris suum antigen); format: in vivo
Method: Six asthmatic sheep were treated in a double blind cross-over study. […] This study was carried out generally as described in Abraham et al., J. Clin. Invest., 93:776-787 (1994).
The inhibitor compound used here was Compound ID No. 896.52, N-phenylacetyl-Leu-Asp-Phe-D-Pro-NH2, with a control compound that comprised the previously described compound having the same residues in a scrambled sequence. The vehicle for the nebulized compounds was phosphate-buffered saline. The compounds were administered at a dose of 1 mg/kg each, twice a day for three days prior to challenge, as well as 0.5 hours prior to and four hours post challenge on day 4. Because this was a crossover study, each animal received one or the other treatment, followed by a rest and then the other treatment. Each animal therefore served as its own control.
Post challenge airway responsiveness was also assayed. Here, specific lung resistance, SRL, returned to baseline values 24 hours after challenge, however, the sheep were hyperresponsive to inhaled carbachol at that time.

[7] = test system: delayed-type hypersensitivity murine model; test: Adoptive transfer delayed type hypersensitivity in mice (oxazolone); format: in vivo, mouse
Method: An adoptive transfer delayed-type hypersensitivity murine model has been developed using splenic T cells primed to oxazolone. This model is described in Elices et al., Clin. Exp. Rheum., 11 (Suppl. 8):577-580 (1993), whose procedures were followed here.
Thus, BALB/c mice were shaved on the belly and painted (50 μl on the belly and 5 μl on each paw) with three percent oxazolone in acetone/olive oil (4:1) at days zero and 1. At day 5, the mice were sacrificed, their spleens removed, and splenic T cells were obtained via nylon wool columns.
Normal saline or saline containing 25×10^6 /animal of the oxazolone-immune T cells were separately injected into naive mice. The mice were then challenged by painting 10 μl of 2 percent oxazolone onto one ear each. All procedures were carried out under sterile conditions and in endotoxin-free buffers.
Prior to challenge or saline injection, the mice were implanted with pumps that subcutaneously administered normal saline, normal saline containing the compound, Compound ID No. 896.52, N-phenylacetyl-Leu-Asp-Phe-D-Pro-NH2, or normal saline containing a compound with a scrambled sequence continually at 6 mg/kg/day for a 24-hour time period. The swelling diameter at the site of challenge or saline injection was measured with a microcaliper 24 hours thereafter.
An expanded study was carried out as described above except that a scrambled compound control was not used as a control for further inhibitor compounds of Table 1 with larger groups of mice. Statistical analyses were carried out versus injection of vehicle alone.

[8] = target: VLA-4 (Homo sapiens, UniProt P05556+P13612); conditions: cited from earlier work
Sequence of VLA-4 (P13612 34-1032): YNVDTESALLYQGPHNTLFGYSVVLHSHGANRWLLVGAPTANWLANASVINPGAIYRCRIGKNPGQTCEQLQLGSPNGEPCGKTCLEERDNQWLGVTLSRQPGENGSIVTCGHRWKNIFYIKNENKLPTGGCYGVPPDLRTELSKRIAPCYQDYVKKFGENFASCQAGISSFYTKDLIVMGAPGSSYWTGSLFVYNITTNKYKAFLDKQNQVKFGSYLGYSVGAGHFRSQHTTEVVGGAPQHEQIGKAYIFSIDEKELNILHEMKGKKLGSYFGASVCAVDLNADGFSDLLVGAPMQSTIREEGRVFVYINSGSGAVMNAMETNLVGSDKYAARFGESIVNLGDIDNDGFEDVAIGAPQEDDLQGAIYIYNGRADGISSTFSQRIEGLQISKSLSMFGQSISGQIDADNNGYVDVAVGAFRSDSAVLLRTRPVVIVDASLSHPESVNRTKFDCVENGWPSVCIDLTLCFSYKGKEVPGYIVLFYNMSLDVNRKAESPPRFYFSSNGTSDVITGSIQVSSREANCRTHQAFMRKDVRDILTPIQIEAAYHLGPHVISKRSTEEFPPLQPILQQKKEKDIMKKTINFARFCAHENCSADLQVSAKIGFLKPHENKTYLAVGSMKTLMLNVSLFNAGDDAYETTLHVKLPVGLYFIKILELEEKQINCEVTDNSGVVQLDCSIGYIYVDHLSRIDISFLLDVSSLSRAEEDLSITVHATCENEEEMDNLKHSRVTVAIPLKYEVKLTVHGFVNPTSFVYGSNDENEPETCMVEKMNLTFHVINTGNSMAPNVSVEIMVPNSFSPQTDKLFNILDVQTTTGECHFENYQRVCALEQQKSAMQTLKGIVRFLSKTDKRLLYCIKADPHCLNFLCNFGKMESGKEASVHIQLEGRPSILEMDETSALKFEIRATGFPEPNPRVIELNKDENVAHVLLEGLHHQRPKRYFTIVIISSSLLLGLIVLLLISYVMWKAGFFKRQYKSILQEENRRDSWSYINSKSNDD
Sequence of VLA-4 (P05556 21-798): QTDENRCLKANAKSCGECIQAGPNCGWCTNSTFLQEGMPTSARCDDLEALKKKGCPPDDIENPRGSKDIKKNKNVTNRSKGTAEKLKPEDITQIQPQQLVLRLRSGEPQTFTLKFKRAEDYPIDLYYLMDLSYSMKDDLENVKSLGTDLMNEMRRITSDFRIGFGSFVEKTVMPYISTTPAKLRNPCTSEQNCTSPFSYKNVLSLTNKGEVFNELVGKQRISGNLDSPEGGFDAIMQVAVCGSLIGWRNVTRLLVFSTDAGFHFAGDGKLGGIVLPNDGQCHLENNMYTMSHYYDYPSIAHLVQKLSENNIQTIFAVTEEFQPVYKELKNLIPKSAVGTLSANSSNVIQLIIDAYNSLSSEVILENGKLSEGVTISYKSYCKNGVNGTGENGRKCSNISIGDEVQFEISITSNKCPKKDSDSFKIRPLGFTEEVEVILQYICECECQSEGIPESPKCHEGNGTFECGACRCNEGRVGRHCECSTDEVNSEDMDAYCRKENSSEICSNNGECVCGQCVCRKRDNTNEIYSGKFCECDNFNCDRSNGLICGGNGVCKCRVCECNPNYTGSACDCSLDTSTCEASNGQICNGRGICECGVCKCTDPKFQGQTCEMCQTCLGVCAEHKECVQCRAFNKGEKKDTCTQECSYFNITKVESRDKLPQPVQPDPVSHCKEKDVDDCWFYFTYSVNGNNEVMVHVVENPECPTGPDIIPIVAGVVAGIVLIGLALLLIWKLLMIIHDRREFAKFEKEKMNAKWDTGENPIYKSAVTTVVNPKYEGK

CC(C)C[C@H](NC(=O)Cc1ccccc1)C(=O)N[C@@H](CC(=O)O)C(=O)N[C@@H](Cc1ccccc1)C(=O)N1CCC[C@@H]1C(N)=O [Compound ID No. 896.52, N-phenylacetyl-Leu-Asp-Phe-D-Pro-NH2] (PhAc-LDF[dP]-NH2)
Expression on Coronary Arteries: ICAM-1 ([1]; 1 mg/kg s.c., 7 to 8 days): ±
Expression on Coronary Arteries: Macrophages ([1]; 1 mg/kg s.c., 7 to 8 days): ±
Expression on Coronary Arteries: T cells ([1]; 1 mg/kg s.c., 7 to 8 days): ±
Expression on Coronary Arteries: Total Fibronectin ([1]; 1 mg/kg s.c., 7 to 8 days): ±
Expression on Coronary Arteries: VCAM-1 ([1]; 1 mg/kg s.c., 7 to 8 days): ±
Expression on Coronary Arteries: MHC Class II ([1]; 1 mg/kg s.c., 7 to 8 days, immunoperoxidase score): ±
Vessel Intimal Thickening: Percent of Vessels ([1]; donor hearts, 1 mg/kg s.c.): 35%
Vessel Intimal Thickening: Severity (Percent of Vessel area) ([1]; donor hearts, 1 mg/kg s.c.): 16%
Baseline (rabbit own host heart) of incidence ([1]; host heart): 12%
Baseline (rabbit own host heart) of severity ([1]; host heart): 12%
loss of potency in serum [2]: no loss of potency

CC[C@H](C)[C@H](NC(=O)[C@H](CCC(=O)O)NC(=O)[C@@H]1CCCN1C(=O)CN)C(=O)N[C@@H](CC(C)C)C(=O)N[C@@H](CC(=O)O)C(=O)N[C@H](C(=O)N1CCC[C@H]1C(=O)N[C@@H](CO)C(=O)N[C@H](C(=O)O)[C@@H](C)O)C(C)C [Compound ID No. 872.01, GPEILDVPST] (H-GPEILDVPST-OH)
abrogation of transferred immune response [3]: could abrogate a transferred immune response
inhibition of Jurkat cell adhesion to RA synovial sections [4]: could be inhibited

CC(C)C[C@H](NC(=O)Cc1ccccc1)C(=O)N[C@@H](CC(=O)O)C(=O)N[C@@H](Cc1ccccc1)C(=O)N1CCC[C@@H]1C(N)=O [896.52] (PhAc-LDF[dP]-NH2)
clinical signs of EAE (FIG. 6) [5]: marked improvement in clinical signs
PC400, carbachol dosage to increase SRL 4-fold ([6]; 24 hours after challenge, pre-challenge about 20-23 BU): about 27 BU
specific lung resistance SRL after challenge (FIG. 7) ([6]; nebulized 1 mg/kg twice a day, versus control compound): less of a change from baseline specific lung resistance (SRL)
swelling at challenge site (initial study, FIG. 5) ([7]; 6 mg/kg/day s.c. by implanted pump for 24 hours, versus saline): reduced this type of CS-1/VLA-4-mediated immunoinflammation
Percent Inhibition of post-challenge swelling ([7]; expanded study, versus vehicle alone, 6 mg/kg/day s.c. pump, 24 hours): 36%

Leu-Asp-Val [LDV]
affinity of VLA-4 binding relative to native CS-1 25-mer [8]: at least two orders of magnitude lower affinity
